Patent US20230167114A1, “MACROCYCLIC JAK INHIBITOR AND USE THEREOF” (Biopolar Hongye (Guangdong) Pharmaceutical Co., Ltd., priority 2020, published 2023)

Legend:
Type in all cases: biochemical
[1] = biological target: TYK2 (Homo sapiens, UniProt P29597); assay: JAK kinase activity, homogeneous time-resolved fluorescence (TYK2 reaction system); conditions: ATP 2 μM, TYK2 protein 0.2 ng/μL; read-out: TYK 2 activity
Protocol: (§1) The activity measurement method of JAK kinase was to use homogeneous time-resolved fluorescence technique. The reaction was performed in 384 shallow well plates with a total reaction volume of 10 μL. The mixture of kinase protein, compound, ATP and substrate was carried out in a reaction buffer of 50 mM Hepes (pH7.0), NaN3 0.02%, BSA 0.01%, 0.1 mM orthocanadate, 5 mM MgCl2, and 1 mM DTT. After reacting for 1 hour, antibody capable of recognizing substrate phosphorylation and dye XL-615 and detection buffer (Cisbio) containing EDTA were added to the system. The reaction signal of kinase was detected by PE company's porous plate detector. The parameter settings were excitation light at 320 nm, emission light at 615 nm and 665 nm. The activity of JAK is indirectly reflected by the signal ratio of 665 nm and 615 nm. In the reaction, the background well without enzyme and the total enzyme activity well without compound were set.
(§2) The IC50 value of the compound inhibiting protein was obtained by the formula: Y=100/(1+10^((Log IC50−X)*HillSlope)).
In TYK2 reaction system, the concentration of ATP was 2 μM and the concentration of TYK2 protein was 0.2 ng/μL.

[2] = biological target: JAK1 (Homo sapiens, UniProt P23458); assay: JAK kinase activity, homogeneous time-resolved fluorescence (JAK1 reaction system); conditions: ATP 2 μM, JAK1 protein 0.2 ng/μL; read-out: JAK 1 activity
Protocol: as §1, §2
In JAK1 reaction system, the concentration of ATP was 2 μM, and the concentration of JAK1 protein was 0.2 ng/μL.

[3] = biological target: JAK2 (Homo sapiens, UniProt O60674); assay: JAK kinase activity, homogeneous time-resolved fluorescence (JAK2 reaction system); conditions: ATP 2 μM, JAK2 protein 0.01 ng/μL
Protocol: as §1, §2
In JAK2 reaction system, the concentration of ATP was 2 μM, and the concentration of JAK2 protein was 0.01 ng/μL.

[4] = biological target: T1, JAK3 (Homo sapiens, UniProt P52333); assay: JAK kinase activity, homogeneous time-resolved fluorescence (JAK3 reaction system); conditions: ATP 2 μM, JAK3 protein 0.04 ng/μL; read-out: JAK 3 activity
T1 sequence (P52333 1-1124): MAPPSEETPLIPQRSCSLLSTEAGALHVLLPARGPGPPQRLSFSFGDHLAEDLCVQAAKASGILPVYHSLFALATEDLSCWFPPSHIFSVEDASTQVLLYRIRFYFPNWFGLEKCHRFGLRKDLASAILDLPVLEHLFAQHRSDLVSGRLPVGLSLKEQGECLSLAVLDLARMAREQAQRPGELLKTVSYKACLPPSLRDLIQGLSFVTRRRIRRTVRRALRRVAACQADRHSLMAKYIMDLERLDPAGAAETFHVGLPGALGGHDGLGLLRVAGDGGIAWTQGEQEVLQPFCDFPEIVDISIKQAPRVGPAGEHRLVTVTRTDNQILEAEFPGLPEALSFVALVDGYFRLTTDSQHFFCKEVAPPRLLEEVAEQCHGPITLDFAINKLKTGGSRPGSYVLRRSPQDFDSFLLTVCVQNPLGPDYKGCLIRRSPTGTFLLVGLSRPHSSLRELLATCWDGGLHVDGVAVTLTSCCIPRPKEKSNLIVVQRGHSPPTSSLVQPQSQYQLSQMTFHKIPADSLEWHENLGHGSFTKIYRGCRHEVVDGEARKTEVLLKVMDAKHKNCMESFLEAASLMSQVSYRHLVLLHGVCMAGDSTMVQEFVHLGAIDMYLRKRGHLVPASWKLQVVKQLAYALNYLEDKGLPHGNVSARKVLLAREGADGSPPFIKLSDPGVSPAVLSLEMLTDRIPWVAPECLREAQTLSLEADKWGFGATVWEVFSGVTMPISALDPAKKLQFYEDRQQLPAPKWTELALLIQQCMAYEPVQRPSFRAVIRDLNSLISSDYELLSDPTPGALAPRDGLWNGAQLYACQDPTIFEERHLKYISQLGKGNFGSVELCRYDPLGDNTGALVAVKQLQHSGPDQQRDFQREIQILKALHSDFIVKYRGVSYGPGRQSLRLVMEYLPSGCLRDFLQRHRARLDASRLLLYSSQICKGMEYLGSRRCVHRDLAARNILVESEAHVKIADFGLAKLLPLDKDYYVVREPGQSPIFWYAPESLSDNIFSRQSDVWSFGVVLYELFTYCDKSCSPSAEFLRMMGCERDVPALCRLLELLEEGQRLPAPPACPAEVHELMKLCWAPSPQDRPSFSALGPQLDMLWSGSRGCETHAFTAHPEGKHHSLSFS
Protocol: as §1, §2
In JAK3 reaction system, the concentration of ATP was 2 μM, and the concentration of JAK3 protein was 0.04 ng/μL.

Chain of TYK2 (P29597 whole entry): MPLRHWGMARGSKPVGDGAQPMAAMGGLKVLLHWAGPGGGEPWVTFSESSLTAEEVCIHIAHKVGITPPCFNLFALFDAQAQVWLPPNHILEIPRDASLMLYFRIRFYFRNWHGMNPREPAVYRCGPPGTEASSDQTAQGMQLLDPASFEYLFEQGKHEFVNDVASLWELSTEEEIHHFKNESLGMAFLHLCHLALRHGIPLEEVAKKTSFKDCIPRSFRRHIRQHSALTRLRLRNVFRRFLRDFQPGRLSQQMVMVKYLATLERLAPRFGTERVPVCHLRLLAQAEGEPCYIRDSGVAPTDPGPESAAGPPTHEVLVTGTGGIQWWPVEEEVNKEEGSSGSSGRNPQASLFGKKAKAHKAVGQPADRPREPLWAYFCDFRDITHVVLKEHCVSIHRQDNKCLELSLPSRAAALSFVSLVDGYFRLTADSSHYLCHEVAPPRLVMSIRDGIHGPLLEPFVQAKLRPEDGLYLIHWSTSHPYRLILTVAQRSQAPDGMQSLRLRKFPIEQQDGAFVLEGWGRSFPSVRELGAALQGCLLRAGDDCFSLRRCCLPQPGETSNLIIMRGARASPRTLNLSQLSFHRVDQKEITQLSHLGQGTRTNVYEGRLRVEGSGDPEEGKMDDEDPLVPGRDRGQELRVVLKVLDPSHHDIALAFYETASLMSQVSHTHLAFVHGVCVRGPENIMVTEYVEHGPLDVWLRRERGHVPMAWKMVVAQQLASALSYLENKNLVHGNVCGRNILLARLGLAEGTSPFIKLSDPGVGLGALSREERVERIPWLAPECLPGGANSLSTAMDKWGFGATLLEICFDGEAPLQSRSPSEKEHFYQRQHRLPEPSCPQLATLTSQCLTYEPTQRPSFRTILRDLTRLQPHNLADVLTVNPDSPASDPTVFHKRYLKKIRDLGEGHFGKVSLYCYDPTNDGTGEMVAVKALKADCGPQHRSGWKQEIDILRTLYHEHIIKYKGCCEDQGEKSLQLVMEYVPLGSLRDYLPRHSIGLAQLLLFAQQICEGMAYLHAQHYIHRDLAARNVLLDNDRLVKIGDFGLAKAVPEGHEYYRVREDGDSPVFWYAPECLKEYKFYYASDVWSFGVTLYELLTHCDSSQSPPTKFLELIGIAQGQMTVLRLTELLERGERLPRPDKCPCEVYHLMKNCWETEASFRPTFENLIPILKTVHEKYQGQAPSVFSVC
Chain of JAK1 (P23458 whole entry): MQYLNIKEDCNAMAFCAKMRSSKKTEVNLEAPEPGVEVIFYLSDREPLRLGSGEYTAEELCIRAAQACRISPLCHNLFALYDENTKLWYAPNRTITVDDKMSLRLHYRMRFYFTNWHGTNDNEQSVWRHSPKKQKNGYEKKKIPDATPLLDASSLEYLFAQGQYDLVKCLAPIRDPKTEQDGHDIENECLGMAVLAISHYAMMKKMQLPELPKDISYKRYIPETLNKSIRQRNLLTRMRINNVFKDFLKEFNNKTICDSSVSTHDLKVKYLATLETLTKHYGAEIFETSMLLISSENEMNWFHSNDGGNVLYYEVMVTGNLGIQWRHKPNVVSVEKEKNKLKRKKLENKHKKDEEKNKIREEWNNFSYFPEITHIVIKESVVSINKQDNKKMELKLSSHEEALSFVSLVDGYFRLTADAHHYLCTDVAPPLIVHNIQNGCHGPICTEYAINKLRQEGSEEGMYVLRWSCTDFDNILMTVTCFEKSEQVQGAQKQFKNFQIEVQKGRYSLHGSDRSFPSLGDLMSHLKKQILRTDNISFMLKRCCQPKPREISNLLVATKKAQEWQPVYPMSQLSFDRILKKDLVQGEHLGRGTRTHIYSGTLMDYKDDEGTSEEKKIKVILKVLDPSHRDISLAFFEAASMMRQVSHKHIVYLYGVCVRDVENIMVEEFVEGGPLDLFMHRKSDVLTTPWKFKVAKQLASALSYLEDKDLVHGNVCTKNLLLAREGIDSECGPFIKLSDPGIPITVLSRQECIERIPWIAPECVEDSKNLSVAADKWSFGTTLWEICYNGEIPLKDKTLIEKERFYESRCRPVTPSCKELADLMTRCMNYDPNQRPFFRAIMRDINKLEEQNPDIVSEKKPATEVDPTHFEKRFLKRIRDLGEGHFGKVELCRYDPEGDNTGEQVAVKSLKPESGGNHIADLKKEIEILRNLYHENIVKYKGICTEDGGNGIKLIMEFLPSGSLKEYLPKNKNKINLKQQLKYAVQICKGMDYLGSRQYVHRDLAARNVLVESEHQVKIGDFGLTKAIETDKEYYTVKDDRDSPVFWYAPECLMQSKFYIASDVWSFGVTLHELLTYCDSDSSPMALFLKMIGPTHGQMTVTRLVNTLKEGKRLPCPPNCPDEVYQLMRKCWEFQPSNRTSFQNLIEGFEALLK
Chain of JAK2 (O60674 whole entry): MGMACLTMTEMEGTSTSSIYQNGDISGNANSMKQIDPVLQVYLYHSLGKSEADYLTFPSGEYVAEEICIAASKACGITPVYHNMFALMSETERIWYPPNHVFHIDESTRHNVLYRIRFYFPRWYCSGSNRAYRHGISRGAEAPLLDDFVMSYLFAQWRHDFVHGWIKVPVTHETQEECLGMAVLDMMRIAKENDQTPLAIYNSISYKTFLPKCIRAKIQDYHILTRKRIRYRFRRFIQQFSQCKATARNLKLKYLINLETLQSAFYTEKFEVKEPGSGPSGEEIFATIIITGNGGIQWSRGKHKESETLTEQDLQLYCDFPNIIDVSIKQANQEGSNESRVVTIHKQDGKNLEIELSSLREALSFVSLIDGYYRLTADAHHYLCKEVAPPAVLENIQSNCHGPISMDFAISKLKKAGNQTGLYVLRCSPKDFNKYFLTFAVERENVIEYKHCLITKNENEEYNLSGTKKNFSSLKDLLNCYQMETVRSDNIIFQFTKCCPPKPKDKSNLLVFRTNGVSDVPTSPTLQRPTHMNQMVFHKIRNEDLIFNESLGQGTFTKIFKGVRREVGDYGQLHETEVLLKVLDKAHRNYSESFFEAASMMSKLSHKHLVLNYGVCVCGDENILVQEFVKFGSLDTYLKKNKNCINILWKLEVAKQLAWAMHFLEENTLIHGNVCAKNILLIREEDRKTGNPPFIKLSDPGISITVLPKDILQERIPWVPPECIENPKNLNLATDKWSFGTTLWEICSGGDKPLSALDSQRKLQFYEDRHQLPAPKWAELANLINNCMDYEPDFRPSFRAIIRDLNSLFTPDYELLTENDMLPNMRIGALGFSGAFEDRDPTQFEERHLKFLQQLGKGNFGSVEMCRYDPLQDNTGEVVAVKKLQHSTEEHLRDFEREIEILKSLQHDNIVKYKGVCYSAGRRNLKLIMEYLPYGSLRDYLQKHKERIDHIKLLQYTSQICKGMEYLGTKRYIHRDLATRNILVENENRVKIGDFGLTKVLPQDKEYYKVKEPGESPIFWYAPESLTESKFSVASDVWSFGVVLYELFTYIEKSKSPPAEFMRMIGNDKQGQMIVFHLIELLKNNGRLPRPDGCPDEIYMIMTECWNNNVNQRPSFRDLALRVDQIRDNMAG

Row | IC50 [1] | IC50 [2] | IC50 [3] | IC50 [4] | Structure (SMILES)
1 | > 10000 nM | 101 to 1000 nM | 1000 to 10000 nM | 1000 to 10000 nM | COc1cc2ccc1C(=O)NCCCCCNc1nc(ncc1C)Nc1cc-2cnc1F [Compound 8, 2^6-fluoro-1^3-methoxy-4^5-methyl-3,5,11-triaza-4(2,4)-pyrimidina-2(3,5)-pyridina-1(1,4)-benzenacyclododecaphan-12-one]
2 | > 10000 nM | 1000 to 10000 nM | 1000 to 10000 nM | 1000 to 10000 nM | Cc1cnc2nc1NCCCCCNC(=O)c1ccc(cc1C(=O)NCc1ccccc1)-c1cnc(F)c(c1)N2 [Compound 41, N-benzyl-2^6-fluoro-4^5-methyl-12-oxo-3,5,11-triaza-4(2,4)-pyrimidina-2(3,5)-pyridina-1(1,4)-benzenacyclododecaphane-1^3-formamide]
3 | 1000 to 10000 nM | 101 to 1000 nM | 101 to 1000 nM | 1000 to 10000 nM | Cc1cnc2nc1NCCCCCNC(=O)c1ccc(cc1Cl)-c1cnc(F)c(c1)N2 [Compound 14, 1^3-chloro-2^6-fluoro-4^5-methyl-3,5,11-triaza-4(2,4)-pyrimidina-2(3,5)-pyridina-1(1,4)-benzenacyclododecaphan-12-one]
4 | > 10000 nM | 101 to 1000 nM | 1000 to 10000 nM | 1000 to 10000 nM | CNC(=O)c1cc2ccc1C(=O)NCCCCCNc1nc(ncc1C)Nc1cc-2cnc1F [Compound 40, 2^6-fluoro-N,4^5-dimethyl-12-oxo-3,5,11-triaza-4(2,4)-pyrimidina-2(3,5)-pyridina-1(1,4)-benzenacyclododecaphane-1^3-formamide]
5 | > 10000 nM | 101 to 1000 nM | 101 to 1000 nM | 1000 to 10000 nM | Cc1cnc2nc1NCCCCCCNC(=O)c1ccc(cc1F)-c1cnc(F)c(c1)N2 [Compound 13, I^3,2^6-difluoro-4^5-methyl-3,5,12-triaza-4(2,4)-pyrimidina-2(3,5)-pyridina-1(1,4)-benzenacyclotridecaphan-13-one]
6 | 1000 to 10000 nM | 11 to 100 nM | 101 to 1000 nM | 101 to 1000 nM | Cc1cnc2nc1NCCCCCNC(=O)c1ccc(cc1F)-c1cnc(F)c(c1)N2 [Compound 6, 1^3,2^6-difluoro-4^5-methyl-3,5,11-triaza-4(2,4)-pyrimidina-2(3,5)-pyridina-1(1,4)-benzenacyclododecaphan-12-one]

Second part, the compound before the results:

Row | Structure (SMILES) | IC50 [1] | IC50 [2] | IC50 [3] | IC50 [4]
7 | COc1cc2cc(c1)Nc1nc(ncc1C)Nc1cc(cnc1F)-c1ccc(cc1)C(=O)NCC2 [Compound 47, 2^6-fluoro-6^5-methoxy-4^5-methyl-3,5,9-triaza-4(2,4)-pyrimidina-2(3,5)-pyridina-1(1,4),6(1,3)-dibenzenacyclodecaphan-10-one] | > 10000 nM | 101 to 1000 nM | 101 to 1000 nM | 1000 to 10000 nM
8 | Cc1cnc2nc1Nc1cccc(c1)CCCNC(=O)c1c(F)cc(cc1F)-c1cnc(F)c(c1)N2 [Compound 31, 1^3,1^5,2^6-trifluoro-4^5-methyl-3,5,10-triaza-4(2,4)-pyrimidina-2(3,5)-pyridina-1(1,4),6(1,3)-dibenzenacycloundecaphan-11-one] | > 10000 nM | 101 to 1000 nM | 101 to 1000 nM | 1000 to 10000 nM
9 | Cc1cnc2nc1Nc1ccccc1CCNC(=O)c1ccc(cc1F)-c1cnc(F)c(c1)N2 [Compound 30, 1^3,6^6-difluoro-4^5-methyl-1^3-3,5,9-triaza-4(2,4)-pyrimidina-1(5,2),2(3,5)-dipyridina-6(1,2)-benzenacyclodecaphan-10-one] | 1000 to 10000 nM | 11 to 100 nM | 11 to 100 nM | 101 to 1000 nM
10 | Cc1cnc2nc1Nc1cccc(c1)CCCNC(=O)c1ccc(cc1F)-c1cnc(F)c(c1)N2 [Compound 23, 1^3,2^6-difluoro-4^5-methyl-3,5,10-triaza-4(2,4)-pyrimidina-2(3,5)-pyridina-1(1,4),6(1,3)-dibenzenacycloundecaphan-11-one] | 101 to 1000 nM | < 10 nM | < 10 nM | 101 to 1000 nM
11 | Cc1cnc2nc1NCCCCCCC(=O)N1CCN(CC1)c1cnc(F)c(c1)N2 [Compound 2, 2^6-fluoro-4^5-methyl-3,5-diaza-4(2,4)-pyrimidina-1(1,4)-piperazina-2(3,5)-pyridinacyclododecaphan-12-one] | 1000 to 10000 nM | 101 to 1000 nM | 101 to 1000 nM | 1000 to 10000 nM
12 | Cc1cnc2nc1Nc1cccc(c1)CCNC(=O)c1ccc(cc1S(C)(=O)=O)-c1cnc(F)c(c1)N2 [Compound 24, 2^6-fluoro-4^5-methyl-1^3-(methylsulfonyl)-3,5,9-triaza-4(2,4)-pyrimidina-2(3,5)-pyridina-1(1,4),6(1,3)-dibenzenacyclodecaphan-10-one] | 101 to 1000 nM | < 10 nM | < 10 nM | 11 to 100 nM
